Test results taken from patent US9403813B2, “Azetidine amide derivatives as orexin receptor antagonists” (ACTELION PHARMACEUTICALS LTD, priority 2013, dated 2016).

Tests used:
human orexin-1 receptor = human orexin-1 receptor (Homo sapiens (Human), UniProt O43613); assay: Intracellular calcium measurements (FLIPR), antagonism of orexin-A response; type: cell-based; conditions: CHO cells expressing human orexin-1 receptor, 3 nM orexin-A, geometric mean if determined several times, read-out: IC50 OX1
Sequence of human orexin-1 receptor (O43613 whole entry): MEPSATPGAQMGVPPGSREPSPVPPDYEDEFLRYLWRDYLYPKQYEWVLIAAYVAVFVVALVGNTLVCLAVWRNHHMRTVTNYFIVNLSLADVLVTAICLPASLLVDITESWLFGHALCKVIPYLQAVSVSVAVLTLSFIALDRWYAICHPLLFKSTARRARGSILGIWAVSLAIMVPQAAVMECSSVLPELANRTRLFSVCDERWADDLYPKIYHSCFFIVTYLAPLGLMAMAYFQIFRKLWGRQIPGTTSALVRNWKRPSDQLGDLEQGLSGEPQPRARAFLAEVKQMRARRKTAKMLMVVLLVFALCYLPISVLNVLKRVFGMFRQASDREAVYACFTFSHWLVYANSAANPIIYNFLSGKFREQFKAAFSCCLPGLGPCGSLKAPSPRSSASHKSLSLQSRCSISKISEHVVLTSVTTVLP
Experimental: (§1) Antagonistic activities on both orexin receptors have been measured for each example compound using the following procedure:
(§2) In Vitro Assay: Intracellular Calcium Measurements:
(§3) Chinese hamster ovary (CHO) cells expressing the human orexin-1 receptor and the human orexin-2 receptor, respectively, are grown in culture medium (Ham F-12 with L-Glutamine) containing 300 μg/mL G418, 100 U/mL penicillin, 100 μg/mL streptomycin and 10% heat inactivated fetal calf serum (FCS). The cells are seeded at 20,000 cells/well into 384-well black clear bottom sterile plates (Greiner). The seeded plates are incubated overnight at 37° C. in 5% CO2. Human orexin-A as an agonist is prepared as 1 mM stock solution in MeOH:water (1:1), diluted in HBSS containing 0.1% bovine serum albumin (BSA), NaHCO3: 0.375 g/L and 20 mM HEPES for use in the assay at a final concentration of 3 nM.
(§4) Antagonists are prepared as 10 mM stock solution in DMSO, then diluted in 384-well plates using DMSO followed by a transfer of the dilutions into in HBSS containing 0.1% bovine serum albumin (BSA), NaHCO3: 0.375 g/L and 20 mM HEPES. On the day of the assay, 50 μL of staining buffer (HBSS containing 1% FCS, 20 mM HEPES, NaHCO3: 0.375 g/L, 5 mM probenecid (Sigma) and 3 μM of the fluorescent calcium indicator fluo-4 AM (1 mM stock solution in DMSO, containing 10% pluronic) is added to each well. The 384-well cell-plates are incubated for 50 min at 37° C. in 5% CO2 followed by equilibration at rt for 30 min before measurement.
(§5) Within the Fluorescent Imaging Plate Reader (FLIPR Tetra, Molecular Devices), antagonists are added to the plate in a volume of 10 μL/well, incubated for 120 min and finally 10 μL/well of agonist is added. Fluorescence is measured for each well at 1 second intervals, and the height of each fluorescence peak is compared to the height of the fluorescence peak induced by 3 nM orexin-A with vehicle in place of antagonist. The IC50 value (the concentration of compound needed to inhibit 50% of the agonistic response) is determined and may be normalized using the obtained IC50 value of an on-plate reference compound. Optimized conditions were achieved by adjustment of pipetting speed and cell splitting regime. The calculated IC50 values may fluctuate depending on the daily cellular assay performance. Fluctuations of this kind are known to those skilled in the art. In the case where IC50 values have been determined several times for the same compound, the geometric mean has been given.

human orexin-2 receptor = human orexin-2 receptor (Homo sapiens (Human), UniProt O43614); assay: as above; type: cell-based; conditions: CHO cells expressing human orexin-2 receptor, 3 nM orexin-A, geometric mean if determined several times, read-out: IC50 OX2
Sequence of human orexin-2 receptor (O43614 whole entry): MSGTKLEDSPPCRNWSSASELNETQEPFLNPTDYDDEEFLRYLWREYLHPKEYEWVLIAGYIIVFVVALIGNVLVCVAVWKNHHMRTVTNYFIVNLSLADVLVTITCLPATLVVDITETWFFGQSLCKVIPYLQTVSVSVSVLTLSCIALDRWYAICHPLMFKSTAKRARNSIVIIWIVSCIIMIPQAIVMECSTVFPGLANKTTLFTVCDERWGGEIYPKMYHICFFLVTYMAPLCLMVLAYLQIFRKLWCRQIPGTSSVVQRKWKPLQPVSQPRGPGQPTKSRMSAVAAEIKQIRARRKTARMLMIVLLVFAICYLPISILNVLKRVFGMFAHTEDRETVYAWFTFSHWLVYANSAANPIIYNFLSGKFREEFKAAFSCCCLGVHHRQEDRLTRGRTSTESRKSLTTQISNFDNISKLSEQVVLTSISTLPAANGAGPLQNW
Experimental: as §1, §2, §3, §4, §5

Structure (SMILES) | IC50 (human orexin-1 receptor) [nM] | IC50 (human orexin-2 receptor) [nM]
COc1cc(C(=O)N2CC[C@H]2c2nc(-c3cccc(F)c3C)no2)c(-n2nccn2)cc1F [Example 25, (4-Fluoro-5-methoxy-2-[1,2,3]triazol-2-yl-phenyl)-{(S)-2-[3-(3-fluoro-2-methyl-phenyl)-[1,2,4]oxadiazol-5-yl]-azetidin-1-yl}-methanone] | 1750 | 27
COc1cc(C(=O)N2CC[C@H]2c2nc(-c3cccc(F)c3OC)no2)c(-n2nccn2)cc1F [Example 26, {(S)-2-[3-(3-Fluoro-2-methoxy-phenyl)-[1,2,4]oxadiazol-5-yl]-azetidin-1-yl}-(4-fluoro-5-methoxy-2-[1,2,3]triazol-2-yl-phenyl)-methanone] | 2080 | 26
COc1cc(C(=O)N2CC[C@H]2c2nc(-c3ccccc3OC(F)(F)F)no2)c(-n2nccn2)cc1C [Example 27, (5-Methoxy-4-methyl-2-[1,2,3]triazol-2-yl-phenyl)-{(S)-2-[3-(2-trifluoromethoxy-phenyl)-[1,2,4]oxadiazol-5-yl]-azetidin-1-yl}-methanone] | 220 | 6
COc1cc(C(=O)N2CC[C@H]2c2nc(-c3cccc(Cl)c3C)no2)c(-n2nccn2)cc1C [Example 28, {(S)-2-[3-(3-Chloro-2-methyl-phenyl)-[1,2,4]oxadiazol-5-yl]-azetidin-1-yl}-(5-methoxy-4-methyl-2-[1,2,3]triazol-2-yl-phenyl)-methanone] | 397 | 2
COc1cc(C(=O)N2CC[C@H]2c2nc(-c3cccc(F)c3C)no2)c(-n2nccn2)cc1C [Example 29, {(S)-2-[3-(3-Fluoro-2-methyl-phenyl)-[1,2,4]oxadiazol-5-yl]-azetidin-1-yl}-(5-methoxy-4-methyl-2-[1,2,3]triazol-2-yl-phenyl)-methanone] | 671 | 4
CCOc1ncccc1-c1noc([C@@H]2CCN2C(=O)c2cc(C)ccc2-n2nccn2)n1 [Example 30, {(S)-2-[3-(2-Ethoxy-pyridin-3-yl)-[1,2,4]oxadiazol-5-yl]-azetidin-1-yl}-(5-methyl-2-[1,2,3]triazol-2-yl-phenyl)-methanone] | 295 | 10
CCOc1ncccc1-c1noc([C@@H]2CCN2C(=O)c2cc(C)c(C)cc2-n2nccn2)n1 [Example 31, (4,5-Dimethyl-2-[1,2,3]triazol-2-yl-phenyl)-{(S)-2-[3-(2-ethoxy-pyridin-3-yl)-[1,2,4]oxadiazol-5-yl]-azetidin-1-yl}-methanone] | 68 | 3
CCOc1ncccc1-c1noc([C@@H]2CCN2C(=O)c2ccc(C)cc2-n2nccn2)n1 [Example 32, {(S)-2-[3-(2-Ethoxy-pyridin-3-yl)-[1,2,4]oxadiazol-5-yl]-azetidin-1-yl}-(4-methyl-2-[1,2,3]triazol-2-yl-phenyl)-methanone] | 819 | 100
CCOc1ncccc1-c1noc([C@@H]2CCN2C(=O)c2cc(OC)c(F)cc2-n2nccn2)n1 [Example 33, {(S)-2-[3-(2-Ethoxy-pyridin-3-yl)-[1,2,4]oxadiazol-5-yl]-azetidin-1-yl}-(4-fluoro-5-methoxy-2-[1,2,3]triazol-2-yl-phenyl)-methanone] | 1500 | 27
CCOc1ncccc1-c1noc([C@@H]2CCN2C(=O)c2cc(OC)c(C)cc2-n2nccn2)n1 [Example 34, {(S)-2-[3-(2-Ethoxy-pyridin-3-yl)-[1,2,4]oxadiazol-5-yl]-azetidin-1-yl}-(5-methoxy-4-methyl-2-[1,2,3]triazol-2-yl-phenyl)-methanone] | 238 | 5
Cc1ccc(-n2nccn2)c(C(=O)N2CC[C@H]2c2nc(-c3cccnc3OC3CCC3)no2)c1 [Example 35, {(S)-2-[3-(2-Cyclobutoxy-pyridin-3-yl)-[1,2,4]oxadiazol-5-yl]-azetidin-1-yl}-(5-methyl-2-[1,2,3]triazol-2-yl-phenyl)-methanone] | 292 | 71
Cc1ccc(-n2nccn2)c(C(=O)N2CC[C@H]2c2nc(-c3ccccc3)no2)c1 [Example 36, (5-Methyl-2-[1,2,3]triazol-2-yl-phenyl)-[(S)-2-(3-phenyl-[1,2,4]oxadiazol-5-yl)-azetidin-1-yl]-methanone] | 3820 | 287
Cc1nc(C(=O)N2CC[C@H]2c2nc(-c3ccccc3OC(F)(F)F)no2)c(-c2ccccc2F)s1 [Example 37, [5-(2-Fluoro-phenyl)-2-methyl-thiazol-4-yl]-{(S)-2-[3-(2-trifluoromethoxy-phenyl)-[1,2,4]oxadiazol-5-yl]-azetidin-1-yl}-methanone] | 458 | 59
Cc1cccc(-c2sc(C)nc2C(=O)N2CC[C@H]2c2nc(-c3ccccc3OC(F)(F)F)no2)c1 [Example 38, (2-Methyl-5-m-tolyl-thiazol-4-yl)-{(S)-2-[3-(2-trifluoromethoxy-phenyl)-[1,2,4]oxadiazol-5-yl]-azetidin-1-yl}-methanone] | 322 | 119
Cc1ccc(-c2ccccc2)c(C(=O)N2CC[C@H]2c2nc(-c3ccccc3OC(F)(F)F)no2)c1 [Example 39, (4-Methyl-biphenyl-2-yl)-{(S)-2-[3-(2-trifluoromethoxy-phenyl)-[1,2,4]oxadiazol-5-yl]-azetidin-1-yl}-methanone] | 75 | 4
Cc1nc(C(=O)N2CC[C@H]2c2nc(-c3ccccc3OC(F)(F)F)no2)c(-c2ccccc2)s1 [Example 40, (2-Methyl-5-phenyl-thiazol-4-yl)-{(S)-2-[3-(2-trifluoromethoxy-phenyl)-[1,2,4]oxadiazol-5-yl]-azetidin-1-yl}-methanone] | 221 | 41
CN(C)c1nc(C(=O)N2CC[C@H]2c2nc(-c3ccccc3OC(F)(F)F)no2)c(-c2ccccc2)s1 [Example 41, (2-Dimethylamino-5-phenyl-thiazol-4-yl)-{(S)-2-[3-(2-trifluoromethoxy-phenyl)-[1,2,4]oxadiazol-5-yl]-azetidin-1-yl}-methanone] | 43 | 10
O=C(c1ncsc1-c1ccccc1)N1CC[C@H]1c1nc(-c2ccccc2OC(F)(F)F)no1 [Example 42, (5-Phenyl-thiazol-4-yl)-{(S)-2-[3-(2-trifluoromethoxy-phenyl)-[1,2,4]oxadiazol-5-yl]-azetidin-1-yl}-methanone] | 400 | 266
O=C(c1ncsc1-c1cccc(Cl)c1)N1CC[C@H]1c1nc(-c2ccccc2OC(F)(F)F)no1 [Example 43, [5-(3-Chloro-phenyl)-thiazol-4-yl]-{(S)-2-[3-(2-trifluoromethoxy-phenyl)-[1,2,4]oxadiazol-5-yl]-azetidin-1-yl}-methanone] | 288 | 357
Cc1ccc(-c2sc(C)nc2C(=O)N2CC[C@H]2c2nc(-c3ccccc3OC(F)(F)F)no2)cc1 [Example 44, (2-Methyl-5-p-tolyl-thiazol-4-yl)-{(S)-2-[3-(2-trifluoromethoxy-phenyl)-[1,2,4]oxadiazol-5-yl]-azetidin-1-yl}-methanone] | 282 | 73
Cc1nc(C(=O)N2CC[C@H]2c2nc(-c3ccccc3OC(F)(F)F)no2)c(-c2ccccc2C)s1 [Example 45, (2-Methyl-5-o-tolyl-thiazol-4-yl)-{(S)-2-[3-(2-trifluoromethoxy-phenyl)-[1,2,4]oxadiazol-5-yl]-azetidin-1-yl}-methanone] | 745 | 416
Cc1cccc(-n2nccn2)c1C(=O)N1CC[C@H]1c1nc(-c2ccccc2OC(F)(F)F)no1 [Example 46, (2-Methyl-6-[1,2,3]triazol-2-yl-phenyl)-{(S)-2-[3-(2-trifluoromethoxy-phenyl)-[1,2,4]oxadiazol-5-yl]-azetidin-1-yl}-methanone] | 1020 | 115
O=C(c1cc(OC(F)(F)F)ccc1-n1nccn1)N1CC[C@H]1c1nc(-c2ccccc2OC(F)(F)F)no1 [Example 47, (2-[1,2,3]Triazol-2-yl-5-trifluoromethoxy-phenyl)-{(S)-2-[3-(2-trifluoromethoxy-phenyl)-[1,2,4]oxadiazol-5-yl]-azetidin-1-yl}-methanone] | 618 | 727
